Data reported in patent publication US20040039001A1, “2-guanidino-4-aryl-quinazoline” (priority 2000, published 2004).
Where a name gives a salt, the structure may show the parent alone.

| melting point | SMILES |
| --- | --- |
| 180 to 185 °C | CS(=O)(=O)c1ccc2nc(NC(=N)N)nc(-c3ccccc3)c2c1 (as salt: HCl) [Example 6, N-(6-methanesulfonyl-4-phenylquinazolin-2-yl)guanidine] |
| 310 °C | Cl.N=C(N)Nc1nc(-c2ccccc2)c2c(O)cccc2n1 |
| 264 to 267 °C | CN=C(NC)Nc1nc(-c2ccccc2)c2cc(Cl)ccc2n1.Cl |
| 175 to 180 °C | C[S+]([O-])c1ccc2nc(NC(=N)N)nc(-c3ccccc3)c2c1 (stereo not shown) [Example 5, N-(6-methanesulfinyl-4-phenylquinazolin-2-yl)guanidine] |
